{
  "source": "patent US12121614B2",
  "about": "“Delayed release composition for peroral administration” (VICORE PHARMA AB, priority 2020, dated 2024)",
  "experiment": "Dissolution studies of C21 sodium salt in buffers of different pH",
  "format": "physicochemical",
  "description": "50.7 mg of C21 sodium salt (Ardena, Riga, Latvia) was added to 900 mL of 0.09M carbonate buffer (pH 8.95) at a temperature of 37±3° C. with stirring. […] After 15 minutes of stirring, 2M acetic acid solution was added dropwise to provide a pH of 4.52. Evolution CO2 was noted. […] After additional stirring for a further 1.5 hours, 1M NaOH was added to increase pH to 6.8.\n51.2 mg of C21 sodium salt was added to 900 mL of acetate buffer (pH 4.4) at the same temperature with stirring. […] After stirring for 1 hour, 1M NaOH solution was added dropwise to increase the pH to 7.2.\n53.2 mg of C21 sodium salt was added to 900 mL 0.1M of HCl buffer (pH 1.0) at the same temperature with stirring. […] After 20 minutes of stirring, 1M NaOH solution was added dropwise to increase the pH to 4.5.\n51.0 mg of C21 sodium salt was added to 900 mL of 0.1M citrate buffer (pH 4.42) at the same temperature with stirring. The added compound formed a thin slurry. It seemed that nothing had dissolved.\n50.8 mg of C21 sodium salt was added to 900 mL of an acetate buffer (pH 4.49) at the same temperature. […] After stirring for 1 hour, a 1M NaOH solution was added dropwise to increase the pH to 6.8.",
  "data": [
    {"smiles": "CCCCOC(=O)[N-]S(=O)(=O)c1sc(CC(C)C)cc1-c1ccc(Cn2ccnc2)cc1.[Na+]", "note": "[C21 sodium salt]", "values": [
      {"measurement": "dissolution behaviour on addition (A)", "setting": "50.7 mg in 900 mL 0.09M carbonate buffer pH 8.95, 37±3° C., stirring", "result": "dissolved instantly"},
      {"measurement": "dissolution behaviour on addition (E)", "setting": "50.8 mg in 900 mL acetate buffer pH 4.49, 37±3° C.", "result": "formed a thin slurry which floated on the surface"},
      {"measurement": "dissolution behaviour on addition (D)", "setting": "51.0 mg in 900 mL 0.1M citrate buffer pH 4.42, 37±3° C., stirring", "result": "formed a thin slurry. It seemed that nothing had dissolved"},
      {"measurement": "dissolution behaviour on addition (B)", "setting": "51.2 mg in 900 mL acetate buffer pH 4.4, 37±3° C., stirring", "result": "formed a thin slurry which was floated on the surface top"},
      {"measurement": "dissolution behaviour on addition (C)", "setting": "53.2 mg in 900 mL 0.1M HCl buffer pH 1.0, 37±3° C., stirring", "result": "dissolved instantly"},
      {"measurement": "appearance after raising pH (A)", "setting": "(A) 1M NaOH added to pH 6.8, stirring another 1.5 hours", "result": "no significant change in appearance (small white particles)"},
      {"measurement": "appearance after acidification (A)", "setting": "(A) 2M acetic acid added to pH 4.52, after stirring for 1 hour", "result": "formation of small white particles"},
      {"measurement": "appearance after raising pH (B)", "setting": "(B) after 1 hour, 1M NaOH added to pH 7.2", "result": "slurry became thinner and pieces became smaller and goo-like"},
      {"measurement": "appearance after further stirring (B)", "setting": "(B) pH 7.2, stirring another 1.5 hours", "result": "no significant change in appearance (small goo-like particles)"},
      {"measurement": "precipitation after raising pH (C)", "setting": "(C) after 20 minutes, 1M NaOH added to pH 4.5", "result": "no precipitation was observed"},
      {"measurement": "appearance after further stirring (C)", "setting": "(C) pH 4.5, after stirring for 2 hours", "result": "solution still was clear"},
      {"measurement": "decomposition of C21 by UPLC (D)", "setting": "(D) citrate buffer pH 4.42, end of the experiment (7 hours)", "result": "no decomposition"},
      {"measurement": "appearance after further stirring (D)", "setting": "(D) citrate buffer pH 4.42, stirring for 7 hours", "result": "no significant change in appearance"},
      {"measurement": "decomposition of C21 by UPLC (E)", "setting": "(E) acetate buffer pH 4.49 then pH 6.8, end of the experiment", "result": "no decomposition"},
      {"measurement": "appearance after raising pH (E)", "setting": "(E) after 1 hour, 1M NaOH added to pH 6.8", "result": "slurry became slightly thinner"},
      {"measurement": "appearance after further stirring (E)", "setting": "(E) pH 6.8, stirring another hour", "result": "no significant change in appearance"}
    ]}
  ]
}
